Assay results as given in ChEMBL document CHEMBL6120994, “Unravelling the potential of natural chelating agents in the control of Staphylococcus aureus and Pseudomonas aeruginosa biofilms” (Eur J Med Chem, 2025).
Calls of active or inactive are those of the source. The calls are words filed in the database; no cut-off is given here.

What was measured:
Staphylococcus aureus [1] = experiment: Bactericidal activity against Staphylococcus aureus CECT 976 assessed as bacterial killing incubated in MHB for 24 hrs and measured following culturing on agar plate for 24 hrs; type: functional; conditions: time 48 hrs
Pseudomonas aeruginosa [2] = experiment: Antibacterial activity against Pseudomonas aeruginosa ATCC 10145 assessed as inhibition of bacterial growth by measuring inhibition zone diameter at 100 ug/ml incubated for 24 hrs in presence of tobramycin by disc diffusion method (reference value: 13.25 +/-0.5 mm); type: functional; conditions: read-out: DIZ
Staphylococcus aureus [3] = experiment: Antibacterial activity against Staphylococcus aureus CECT 976 assessed as inhibition of bacterial growth by measuring inhibition zone diameter at 1000 ug/ml incubated for 24 hrs in presence of methicillin by disc diffusion method (reference value: 19.5 +/- 1.29 mm); type: functional; conditions: read-out: DIZ
Staphylococcus aureus [4] = experiment: Antibacterial activity against Staphylococcus aureus CECT 976 assessed as inhibition of bacterial growth by measuring inhibition zone diameter at 1000 ug/ml incubated for 24 hrs in presence of tobramycin by disc diffusion method (reference value: 12.5 +/- 1.29 mm); type: functional; conditions: read-out: DIZ
Staphylococcus aureus [5] = experiment: Antibacterial activity against Staphylococcus aureus CECT 976 assessed as inhibition of bacterial growth by measuring inhibition zone diameter at 1000 ug/ml incubated for 24 hrs in presence of fusidic acid by disc diffusion method (reference value: 27.75 +/- 0.5 mm); type: functional; conditions: read-out: DIZ
Pseudomonas aeruginosa [6] = experiment: Antibiotic adjuvant activity against Pseudomonas aeruginosa ATCC 10145 assessed as potentiation of ciprofloxacin-induced antibacterial activity by measuring fractional inhibitory concentration index (MIC) at 15.6 ug/ml measured after 24 hrs by checkerboard assay; type: functional; conditions: dose 15.6 µg/ml
Staphylococcus aureus [7] = experiment: Antibiotic adjuvant activity against Staphylococcus aureus CECT 976 assessed as potentiation of tobamycin-induced antibacterial activity by measuring tobramycin MBC at 62.5 ug/ml measured after 24 hrs by checkerboard assay (reference value: 4 ug/ml); type: functional; conditions: dose 62.5 µg/ml
Staphylococcus aureus [8] = experiment: Antibiotic adjuvant activity against Staphylococcus aureus CECT 976 assessed as potentiation of tobramycin-induced antibacterial activity by measuring fractional inhibitory concentration index (MBC) at 62.5 ug/ml measured after 24 hrs by checkerboard assay; type: functional; conditions: dose 62.5 µg/ml
Staphylococcus aureus [9] = experiment: Antibiofilm activity against preestablished 24 hr-old Staphylococcus aureus CECT 976 assessed as biomass removal at 1000 to 10000 ug/ml measured after 24 hrs by crystal violet staining method; type: functional; conditions: dose 1000-10000 µg/ml, at 1000 to 10000 µg/mL
Pseudomonas aeruginosa [10] = experiment: Antibiofilm activity against preestablished 24 hr-old Pseudomonas aeruginosa ATCC 10145 assessed as reduction in metabolic activity of biofilm cells at MTC by resazurin staining based fluorescence analysis; type: functional, organism-based
Staphylococcus aureus [11] = experiment: Antibiotic adjuvant activity against preestablished 24 hr-old Staphylococcus aureus CECT 976 assessed as potentiation of tobramycin-induced antibiofilm activity by measuring reduction of metabolic activity of biofilm cells at 10000 ug/ml in presence of 1/4XMIC tobramycin by resazurin staining based fluorescence analysis (reference value: 37%); type: functional
Pseudomonas aeruginosa [12] = experiment: Antibiotic adjuvant activity against preestablished 24-hr old Pseudomonas aeruginosa ATCC 10145 assessed as potentiation of ciprofloxacin-induced antibiofilm activity by measuring reduction of CFU biofilm cells at 1000 ug/ml measured after 24 hrs in presence of 1/8XMIC ciprofloxacin by visual counting method; type: functional, organism-based; conditions: dose 1000.0 µg/ml
Cell membrane = experiment: Disruption of membrane integrity in pre-established 24 hr-old Staphylococcus aureus CECT 976 assessed as PI uptake at 10000 ug/ml measured after 24 hrs in presence of 1/4XMIC to MIC tobramycin by PI staining based flow cytometry; type: subcellular; conditions: dose 10000.0 µg/ml
Staphylococcus aureus [13] = experiment: Inhibition of virulence production in Staphylococcus aureus CECT 976 biofilms assessed as diameter of gelatinases halo at 1/2XMTC measured after 48 hrs in presence of 1/4XMIC tobramycin (reference value: 11.3 to 11.8 mm); type: functional
Staphylococcus aureus [14] = experiment: Inhibition of virulence production in Staphylococcus aureus CECT 976 biofilms assessed as diameter of lipases halo at 1/2XMTC measured after 48 hrs (reference value: 11.5 to 13.3 mm); type: functional
Staphylococcus aureus [15] = experiment: Inhibition of virulence production in Staphylococcus aureus CECT 976 biofilms assessed as diameter of protease halo at 1XMTC measured after 72 hrs (reference value: 12 to 13 mm); type: functional
Staphylococcus aureus [16] = experiment: Inhibition of virulence production in Staphylococcus aureus CECT 976 biofilms assessed as diameter of siderophores halo at 1/2XMTC measured after 48 hrs in presence of 1/8XMIC tobramycin (reference value: 10.5 +/-0.6 mm); type: functional
Staphylococcus aureus [17] = experiment: Inhibition of virulence production in pre-established 24 hr-old Staphylococcus aureus CECT 976 biofilms assessed as diameter of gelatinases halo at 1XMTC measured after 48 hrs (reference value: 10 mm); type: functional
Staphylococcus aureus [18] = experiment: Inhibition of virulence production in pre-established 24 hr-old Staphylococcus aureus CECT 976 biofilms assessed as diameter of gelatinases halo at 10XMTC measured after 48 hrs in presence of 1/4XMIC tobramycin (reference value: 10 to 11.3 mm); type: functional
Staphylococcus aureus [19] = experiment: Inhibition of virulence production in pre-established 24 hr-old Staphylococcus aureus CECT 976 biofilms assessed as diameter of lipases halo at 10XMTC measured after 48 hrs (reference value: 11.8 to 12 mm); type: functional
Staphylococcus aureus [20] = experiment: Inhibition of virulence production in pre-established 24 hr-old Staphylococcus aureus CECT 976 biofilms assessed as diameter of lipases halo at 10XMTC measured after 48 hrs in presence of 1/4XMIC tobramycin (reference value: 11.5 +/-0.6 mm); type: functional
Staphylococcus aureus [21] = experiment: Inhibition of virulence production in pre-established 24 hr-old Staphylococcus aureus CECT 976 biofilms assessed as diameter of lipases halo at 10XMTC measured after 48 hrs in presence of 1/2XMIC tobramycin (reference value: 11.5 to 12.3 mm); type: functional
Staphylococcus aureus [22] = experiment: Inhibition of virulence production in pre-established 24 hr-old Staphylococcus aureus CECT 976 biofilms assessed as diameter of lipases halo at 10XMTC measured after 48 hrs in presence of 1XMIC tobramycin (reference value: 11.8 to 12.3 mm); type: functional
Staphylococcus aureus [23] = experiment: Inhibition of virulence production in pre-established 24 hr-old Staphylococcus aureus CECT 976 biofilms assessed as diameter of protease halo at 10XMTC measured after 72 hrs (reference value: 12.5 to 13.3 mm); type: functional
Staphylococcus aureus [24] = experiment: Inhibition of virulence production in pre-established 24 hr-old Staphylococcus aureus CECT 976 biofilms assessed as diameter of protease halo at 10XMTC measured after 72 hrs in presence of 1/4XMIC tobramycin (reference value: 12.5 to 12.8 mm); type: functional
Staphylococcus aureus [25] = experiment: Inhibition of virulence production in pre-established 24 hr-old Staphylococcus aureus CECT 976 biofilms assessed as diameter of siderophores halo at 10XMTC measured after 48 hrs (reference value: 11.5 to 11.8 mm); type: functional
HepG2 = experiment: Cytotoxicity against human HepG2 cells assessed as cell mass by measuring SRB binding at 93.5 to 1000 ug/ml measured after 24 hrs by SRB assay; type: toxicity, cell-based; conditions: hepg2, 24 h, at 93.5 to 1000 µg/mL, dose 93.5-1000 µg/ml

Structure (SMILES)	MBC (Staphylococcus aureus [1]) [µg/mL]	zone of inhibition at 100 µg/mL (Pseudomonas aeruginosa [2]) [mm]	zone of inhibition at 1000 µg/mL (Staphylococcus aureus [3]) [mm]	zone of inhibition at 1000 µg/mL (Staphylococcus aureus [4]) [mm]	zone of inhibition at 1000 µg/mL (Staphylococcus aureus [5]) [mm]	fractional inhibitory concentration index (FICI) (Pseudomonas aeruginosa [6])	MBC (Staphylococcus aureus [7]) [µg/mL]	fractional inhibitory concentration index (FICI) (Staphylococcus aureus [8])	inhibition (INH) (Staphylococcus aureus [9]) [%]	Activity (Pseudomonas aeruginosa [10])	inhibition at 10000 µg/mL (Staphylococcus aureus [11]) [%]	Activity (Pseudomonas aeruginosa [12])	Activity (Cell membrane) [%]	Activity (Staphylococcus aureus [13]) [mm]	Activity (Staphylococcus aureus [14]) [mm]	Activity (Staphylococcus aureus [15]) [mm]	Activity (Staphylococcus aureus [16]) [mm]	Activity (Staphylococcus aureus [17]) [mm]	Activity (Staphylococcus aureus [18]) [mm]	Activity (Staphylococcus aureus [19]) [mm]	further results
O=c1cc(CO)occ1O [KOJIC ACID]	> 1000	17.2	16	13.2	26.8	0.5	1	0.3	15	inactive	80	inactive	50	0	2.8	0	9	0	0	2.5	Activity (Staphylococcus aureus [20]): 2.5 mm; Activity (Staphylococcus aureus [21]): 2 mm; Activity (Staphylococcus aureus [22]): 2 mm; Activity (Staphylococcus aureus [23]): 0 mm; Activity (Staphylococcus aureus [24]): 0 mm; Activity (Staphylococcus aureus [25]): 9.3 mm; Activity (HepG2): > 90%
Cc1occc(=O)c1O [MALTOL]	> 1000	16.2	15.5	19	28.2	0.5	1	0.3	15	inactive	80	inactive	50	0	3.5	0	10	0	0	2.5	Activity (Staphylococcus aureus [20]): 2.3 mm; Activity (Staphylococcus aureus [21]): 2.3 mm; Activity (Staphylococcus aureus [22]): 2.3 mm; Activity (Staphylococcus aureus [23]): 0 mm; Activity (Staphylococcus aureus [24]): 0 mm; Activity (Staphylococcus aureus [25]): 10 mm; Activity (HepG2): > 90%
